Measurements from patent US6632669B2, “Plant kinases and methods of modulation of their activity in plants” (The Salk Institute for Biological Studies, priority 1999, dated 2003).

Experiments:
Arabidopsis MAP kinase = conditions: tobacco cell extract, protoplasts treated with 2,4-D; cited from earlier work
35S::PID T2 plants = assay: Lateral root formation of 35S::PID T2 plants grown on plates supplemented with NAA; type: in vivo, Arabidopsis; conditions: 10 days on 0.1 μm NAA
Procedure: (§1) Plants were grown in florescent light under long-day conditions (16 hours light, 8 hours dark). Wild type was Columbia. Transgenic plants were generated by vacuum infiltration (Bechtold et al. (1993) C. R. Acad. Sci. 316:1194-1199). For root gravitropism experiments, seeds were grown on vertically oriented 1/2×MS plates at 24° C.
To determine whether the loss of lateral root formation in 35::PID plants could be bypassed by exogenous auxin, T2 plants were grown on plates supplemented with the synthetic auxin-analog NAA ([…]). […] As in the previous experiment, there was a perfect correlation between loss of lateral root formation and agravitropic root growth.

35S::PID plants = assay: Root growth in response to exogenous auxin in 35S::PID plants (selected on kanamycin plates with NAA); type: in vivo, Arabidopsis; conditions: for Lateral roots / Primary root length: mean ± standard deviation
Procedure: as §1
The failure of 35S::PID plants to develop lateral roots in response to exogenous auxin can be explained by defects in either auxin uptake or response. To distinguish between these possibilities, 35S: PID plants was selected on plates containing kanamycin and 0, 0.1, 1.0 or 10.0 μM NAA.

Row | Structure (SMILES) | Effectiveness of MAP kinase phosphorylation by extract of treated protoplasts versus extracts from auxin-starved cultures (Arabidopsis MAP kinase) | Bypass of the block in lateral root formation caused by PID overexpression (35S::PID T2 plants; T2 plants) | Average number of lateral roots in seedlings that produced lateral roots (35S::PID T2 plants; T2 progeny of 35S::PID, 11 of 37 germinated seedlings (range 18-31), remaining 26 produced none) | Lateral root growth at very high NAA concentrations (35S::PID plants; 35S::PID plants) | Primary root elongation with increasing NAA concentration (35S::PID plants; 35S::PID plants, 0, 0.1, 1.0 or 10.0 μM NAA) | Lateral roots (35S::PID plants; 35S::PID plants, [NAA] 0.1 μM) | Primary root length (35S::PID plants; 35S::PID plants, [NAA] 0.1 μM) | Lateral roots (35S::PID plants; 35S::PID plants, [NAA] 1 μM) | Primary root length (35S::PID plants; 35S::PID plants, [NAA] 1 μM) | Lateral roots (35S::PID plants; 35S::PID plants, [NAA] 10 μM) | Primary root length (35S::PID plants; 35S::PID plants, [NAA] 10 μM)
1 | O=C(O)COc1ccc(Cl)cc1Cl [2,4-D] | three to four-fold more effective |  |  |  |  |  |  |  |  |  | 
2 | O=C(O)Cc1ccc2ccccc2c1 [NAA, β-napthaleneacetic acid] |  | did not overcome the block in lateral root formation | 24 | still inhibited | progressively inhibited | 0.1 ± 0.3 | 11.6 ± 5.9 mm | 0.1 ± 0.3 | 6.0 ± 3.1 mm | 0.7 ± 1.2 | 1.4 ± 0.5 mm
